According to patent US12419871B2, “Biomolecules involved in Alzheimer's disease” (ELECTROPHORETICS LIMITED, priority 2015, dated 2025):
“And” between values parts separate entries of the source, which are not always exact repeats. Equal values may be shown once. “Also recorded” adds a separate entry of the source.

Test system: TMHT (Thy-1 Mutated Human Tau) mice
Assay: SysQuant analysis of protein and phosphorylation changes in brains of TMHT mice treated with CK1d inhibitors
Type: in vivo, mouse
Conditions: for Mouse brain Log 2 Ck1 inhibitor: 2′,3′-cyclic-nucleotide 3′-phosphodiesterase / Mouse brain Log 2 Ck1 inhibitor: phosphatase 1 regulatory subunit 14A / effect of treatment on protein phosphatase 1 regulatory subunit 14A level in mouse brain (in words) / effect of treatment on 2′,3′-cyclic-nucleotide 3′-phosphodiesterase level in mouse brain (in words): 30 mg/kg; for effect of treatment on protein phosphatase 1 regulatory subunit 14A level in mouse brain (in words) / effect of treatment on 2′,3′-cyclic-nucleotide 3′-phosphodiesterase level in mouse brain (in words): TMHT model, treated orally 30 mg/kg; for effect of treatment on protein phosphatase 1 regulatory subunit 14A level in mouse brain (in words): versus vehicle alone (FIG. 5B); for effect of treatment on 2′,3′-cyclic-nucleotide 3′-phosphodiesterase level in mouse brain (in words): versus vehicle alone (FIG. 6B); for number of human tau peptides significantly (p<0.05) regulated in the hippocampi of treated mice: of 124 unique quantified peptides from human tau, 30 mg/kg orally
Experimental: Starting at 8.5 months (±2 weeks) of age, TMHT mice received CK1d inhibitors 2-Methyl-amino-3-[(4-fluorophenyl)carbonyl]indolizine-1-carboxamide (PS278-05), 5-(1,3-benzoxazol-2-yl)-4-(pyridine-4-yl)pyrimidin-2-amine (PS110), compound PF4800567 (3-[(3-Chlorophenoxy)methyl]-1-(tetrahydro-2H-pyran-4-yl)-1H-pyrazolo[3,4-d]pyrimidin-4-amine; Tocris®) or vehicle (0.5% w/v methylcellulose) for 8 weeks (54 applications) at a dosage of 30 mg/kg body weight, orally via gavage.
In total 48 animals were used and allocated to 4 treatment groups.
Brain samples were collected within 10 minutes of euthanasia, washed in ice cold saline, transferred to a clean Eppendorf tube and immediately frozen in liquid nitrogen.
One hippocampus sample (left or right) from each of three animals in each of the vehicle, PS110 and PS278-05 groups were selected for analysis by SysQuant. A pool of all nine samples was also prepared as a reference channel. All TMT® labelling, mixing and mass spectrometry and bioinformatics studies were performed essentially as described in Section 4.1. For peptide and protein identification the UniProtKB mouse database was used, supplemented by inclusion of all human tau isoform entries.
All protein identification, peptide sequence, phosphorylation site information along with quantitative values and biological information relating to the peptide, protein and phosphorylation sites were assembled in a Microsoft Excel file (QuantSheet) to allow structured data analysis based on fold-change, significance, biological function and cellular localisation.
Similarly, the expression levels of total tau and for each phosphorylated serine, threonine and tyrosine amino acid in mouse brains following treatment with vehicle control or the CK1d inhibitors PS278-05 and PS110 were calculated.
All peptides that matched the human MAPT (P10636; SEQ ID NO:29) UniProt sequence and/or the mouse MAPT (P10637) were exported into a separate Microsoft Excel sheet. Ion intensity values for each phosphopeptide were summed and the average calculated for each treatment group (Vehicle control, PS110, PS278-05).

[1] = TMHT mice, hippocampus, 30 mg/kg orally via gavage, 8 weeks

Row | SMILES | Mouse brain Log 2 Ck1 inhibitor: BH3-interacting domain death agonist [1] | Mouse brain Log 2 Ck1 inhibitor: Catenin delta-1 [1] | Mouse brain Log 2 Ck1 inhibitor: Clathrin light chain B [1] | Mouse brain Log 2 Ck1 inhibitor: Guanine nucleotide-binding protein G(q) subunit alpha [1] | Mouse brain Log 2 Ck1 inhibitor: Myelin-associated oligodendrocyte basic protein [1] | Mouse brain Log 2 Ck1 inhibitor: Neutral alpha-glucosidase AB [1] | Mouse brain Log 2 Ck1 inhibitor: Secernin-2 [1] | Mouse brain Log 2 Ck1 inhibitor: Short-chain specific acyl-CoA dehydrogenase, mitochondrial [1] | Mouse brain Log 2 Ck1 inhibitor: Syntaphilin [1] | Mouse brain Log 2 Ck1 inhibitor: Transmembrane protein 119 [1] | Mouse brain Log 2 Ck1 inhibitor: 2′,3′-cyclic-nucleotide 3′-phosphodiesterase [1] | Mouse brain Log 2 Ck1 inhibitor: phosphatase 1 regulatory subunit 14A [1] | effect of treatment on protein phosphatase 1 regulatory subunit 14A level in mouse brain (in words) | effect of treatment on 2′,3′-cyclic-nucleotide 3′-phosphodiesterase level in mouse brain (in words) | number of human tau peptides significantly (p<0.05) regulated in the hippocampi of treated mice (TMHT mice, 8 weeks) | other results
1 | NC(=O)c1c(N)c(C(=O)c2ccc(F)cc2)n2ccccc12 [PS278, 2-amino-3-[(4-fluorophenyl)carbonyl]indolizine-1-carboxamide] | −0.56 | −1.07 | 0.50 | 0.62 | 0.66 | −0.78 | −0.52 | 0.57 | −0.76 | −0.52 | 0.62 and 0.63 | 0.49 and 0.71 |  |  |  | Mouse brain Log 2 Ck1 inhibitor: Centrosomal protein of 170 kDa [1]: −0.51; Mouse brain Log 2 Ck1 inhibitor: Egl nine homolog 1 [1]: -0.73; Mouse brain Log 2 Ck1 inhibitor: Lambda-crystallin homolog [1]: 0.56; Mouse brain Log 2 Ck1 inhibitor: OCIA domain-containing protein 1 [1]: −0.59; Mouse brain Log 2 Ck1 inhibitor: Synaptoporin [1]: 0.72; Mouse brain Log 2 Ck1 inhibitor: Tubulin alpha chain-like 3 [1]: 0.67
2 | CNc1c(C(N)=O)c2ccccn2c1C(=O)c1ccc(F)cc1 [PS278-05, 2-Methyl-amino-3-[(4-fluorophenyl)carbonyl]indolizine-1-carboxamide] |  |  |  |  |  |  |  |  |  |  |  |  | up-regulation; also recorded: altering the concentration or amount; also recorded: upregulated | altering the concentration or amount; also recorded: upregulated | 22 | 
3 | Nc1ncc(-c2nc3ccccc3o2)c(-c2ccncc2)n1 [PS110, 5-(1,3-benzoxazol-2-yl)-4-(pyridin-4-yl)pyrimidin-2-amine] | −0.53 | −2.26 | 0.70 | 0.82 | 0.84 | 0.52 | −0.76 | 0.54 | −0.71 | −0.66 | 0.63 and 0.57 | 0.71 and 0.69 | altering the concentration or amount; also recorded: upregulated | altering the concentration or amount; also recorded: upregulated | 37 | Mouse brain Log 2 Ck1 inhibitor: Actin, alpha cardiac muscle 1 [1]: 0.58; Mouse brain Log 2 Ck1 inhibitor: Antithrombin-III [1]: 0.57; Mouse brain Log 2 Ck1 inhibitor: Fibrinogen gamma chain [1]: 1.01; Mouse brain Log 2 Ck1 inhibitor: GMP reductase 1 [1]: 0.68; Mouse brain Log 2 Ck1 inhibitor: Insulin-like growth factor-binding protein [1]: −0.53; Mouse brain Log 2 Ck1 inhibitor: KxDL motif-containing protein 1 [1]: −0.58; Mouse brain Log 2 Ck1 inhibitor: Nuclear pore complex protein Nup155 [1]: −0.53; Mouse brain Log 2 Ck1 inhibitor: Protein KIAA1045 [1]: −0.63; Mouse brain Log 2 Ck1 inhibitor: Serum albumin [1]: 0.69; Mouse brain Log 2 Ck1 inhibitor: cAMP-dependent protein kinase type 1 [1]: 0.53; effect of treatment on protein phosphatase 1 regulatory subunit 14A level in mouse brain (in words) (listed as 5-(1,3-benzoxazol-2-yl)-4-(pyridine-4-yl)pyrimidin-2-amine): up-regulation
